This is an account of results in patent publication US8012711B2, “Methods of screening for compounds that reduce microbial resistance to fluoroquinolones” (priority 1999, dated 2011).

Each structure is given as a SMILES string. ≈ marks a conversion by molar mass, not a printed value. Like-named read-outs stand apart in the source and are kept apart here.

Data set [1] concerns Escherichia coli K-12 AG100, its Mar mutant AG112 and derived fluoroquinolone-resistant mutants (acrAB+). Kind of data set: MIC by broth microdilution, acrAB+ strains. The settings on record: Escherichia coli. The class given is cell-based. How it is done: Selection of fluoroquinolone-resistant mutants. 1-AG100, 2°-AG100, 3*-AG100, 4*-AG100 and 1′-AG112, 2′-AG112, 3′-AG112 were sequential step mutants derived from AG 100 and AG112, respectively, on solid media. For each step, about 10^11 cells of an overnight culture were plated on several LB agar plates supplemented with increasing concentrations of OFL. Single colonies were further purified on OFL-supplemented agar plates. Mutant 2°-AG100 came out of one series, while mutants 3*- and 4*-AG100 came from a second series.
(§1) Susceptibility testing. MICs of selected antimicrobial agents were determined by a standard broth microdilution procedure with cation-adjusted Mueller-Hinton broth (Becton Dickinson, Cockeysville, Md.) and an inoculum of 5×10^5 CFU/ml according to NCCLS performance and interpretive guidelines (NCCLS. 1997. Methods for dilution antimicrobial susceptibility. Tests for bacteria that grow aerobically—Fourth Edition; Approved Standard. NCCLS document M7-A4 (ISBN 1-56238-309-4). NCCLS, 940 West Valley Road, Suite 1400, Wayne, Pa. 19087). Antimicrobial agents on the commercially available microtiter plates (Merlin Diagnostics GmbH, Bornheim, Germany) included the FQs ciprofloxacin (CIP), enoxacin, fleroxacin, nor-flo-xacin, ofloxacin (OFL), pefloxacin, sparfloxacin (SPX), and trovafloxacin (TVA). They also included tetracycline (TET), chloramphenicol (CML), trimethoprim (TMP), cefoxitin (CFOX), cefaclor, cefixim and loracarbef. MICs of bile salts were determined by a broth macrodilution procedure: sodium cholate and sodium deoxycholate were serially diluted twofold in LB broth and tubes inoculated at 5×10^5 CFU/ml. MICs of both antibiotics and bile salts were determined twice in independent experiments with reproducible results.

The test system of data set [2] is Escherichia coli AG100, AG112 and derived mutants bearing ΔacrAB. Particulars: all strains, energized cells.
Data set [3] concerns Escherichia coli K-12 AG100, AG112 and derived fluoroquinolone-resistant mutants (wild-type acrAB). The settings on record: whole energized cells.
In data set [4] the test system is Escherichia coli AG100, AG112 and derived fluoroquinolone-resistant mutants with ΔacrAB. The data set can be described thus: MIC by broth microdilution, AcrAB-deleted strains. In kind it is cell-based. The settings on record: Escherichia coli. As to the method:
as §1
P1 transduction. […] DNA sequencing.
For orientation: In broth dilution the organism is exposed to a series of concentrations in liquid medium.

Take `O=C(O)c1cn(C2CC2)c2cc(N3CCNCC3)c(F)cc2c1=O` [CIP, ciprofloxacin]: the minimal inhibitory concentration (MIC) worked out at 0.25 µg/mL (≈ 0.754 µM) in data set [1] (strain 1-AG100, acrAB+, read-out: MIC); 0.5 µg/mL (≈ 1.51 µM) in data set [1] (strain 1-AG112 (1′-AG112), acrAB+, read-out: MIC); 0.5 µg/mL (≈ 1.51 µM) in data set [1] (strain 2-AG100 (2°-AG100), acrAB+); 2 µg/mL (≈ 6.04 µM) in data set [1] (strain 2-AG112 (2′-AG112), acrAB+, read-out: MIC); 1 µg/mL (≈ 3.02 µM) in data set [1] (strain 3*-AG100, acrAB+, read-out: MIC); 4 µg/mL (≈ 12.1 µM) in data set [1] (strain 3-AG112 (3′-AG112), acrAB+, read-out: MIC). Moreover, the MIC is 2 µg/mL (≈ 6.04 µM) in data set [1] (strain 4*-AG100, acrAB+, read-out: MIC); not above 0.015 µg/mL in data set [1] (strain AG100, acrAB+, read-out: MIC); 0.06 µg/mL (≈ 0.181 µM) in data set [1] (strain AG112 (Mar mutant), acrAB+); 0.06 µg/mL (≈ 0.181 µM) in data set [4] (strain 1-AG100, ΔacrAB); 0.03 µg/mL (≈ 0.0905 µM) in data set [4] (strain 1-AG112 (1′-AG112), ΔacrAB); 0.06 µg/mL (≈ 0.181 µM) in data set [4] (strain 2-AG100 (2°-AG100), ΔacrAB). The MIC in data set [4] (strain 2-AG112 (2′-AG112), ΔacrAB) is 0.03 µg/mL (≈ 0.0905 µM); in data set [4] (strain 3*-AG100, ΔacrAB), 0.06 µg/mL (≈ 0.181 µM); in data set [4] (strain 3-AG112 (3′-AG112), ΔacrAB) it was 0.03 µg/mL (≈ 0.0905 µM); in data set [4] (strain 4*-AG100, ΔacrAB) it was 0.125 µg/mL (≈ 0.377 µM); in data set [4] (strain AG100, ΔacrAB), not above 0.015 µg/mL; in data set [4] (strain AG112, ΔacrAB), not above 0.015 µg/mL. Besides, the “Active efflux of ciprofloxacin upon deletion of AcrAB” value is listed as “completely aborted” in data set [2] and “completely abolished” in data set [2] (listed as cfx). In addition, in data set [3], the “Time at which CIP accumulation reached a plateau” value was not above 5 min.

The term MIC denotes the lowest concentration that inhibits growth of the organism.
